Laboratory results as given in a compilation of properties of binary mixtures (doi:10.1016/j.molliq.2022.119944).

Test: xn = mol fraction of the nth substance listed
Conditions: 101.3 kPa

C=C[n+]1ccn(CCCC)c1.N[C@@H](CO)C(=O)[O-] + O
Conditions | electrical conductivity [S/m] | viscosity [mPa·s]
293.15 K, x1 = 0.1 | – | 6.68
293.15 K, x1 = 0.5 | – | 95.4
293.15 K, x1 = 0.7 | – | 720
293.15 K, x1 = 0.9 | – | 2700
293.15 K, x1 = 1 | – | 18000
303.15 K, x1 = 0.3 | 2.86 | 13.51
303.15 K, x1 = 0.5 | 3.18 | 71.2
303.15 K, x1 = 0.7 | 2.61 | 490
303.15 K, x1 = 1 | 0.006 | 13600
308.15 K, x1 = 0.1 | 1.46 | –
308.15 K, x1 = 0.3 | 3.08 | –
308.15 K, x1 = 0.5 | 3.44 | –
308.15 K, x1 = 0.7 | 2.84 | –
308.15 K, x1 = 1 | 0.007 | –
313.15 K, x1 = 0.1 | 1.61 | 5.94
313.15 K, x1 = 0.3 | 3.31 | 10.76
313.15 K, x1 = 0.5 | 3.75 | 54.6
313.15 K, x1 = 0.7 | 3.19 | 446
313.15 K, x1 = 0.9 | 1.1 | 1159
313.15 K, x1 = 1 | 0.01 | 9100
318.15 K, x1 = 0.1 | 1.78 | –
318.15 K, x1 = 0.3 | 3.65 | –
318.15 K, x1 = 0.5 | 4.05 | –
318.15 K, x1 = 0.7 | 3.43 | –
318.15 K, x1 = 0.9 | 1.42 | –
318.15 K, x1 = 1 | 0.013 | –
323.15 K, x1 = 0.1 | 1.9 | 4.84
323.15 K, x1 = 0.3 | 3.9 | 8.81
323.15 K, x1 = 0.5 | 4.46 | 44.4
323.15 K, x1 = 0.7 | 3.82 | 400
323.15 K, x1 = 0.9 | 1.69 | 820
333.15 K, x1 = 0.1 | – | 4.82
333.15 K, x1 = 0.3 | – | 7.96
333.15 K, x1 = 0.7 | – | 396
333.15 K, x1 = 0.9 | – | 670
333.15 K, x1 = 1 | – | 2800
343.15 K, x1 = 0.1 | – | 4.57
343.15 K, x1 = 0.3 | – | 7.27
343.15 K, x1 = 0.5 | – | 37.75
343.15 K, x1 = 0.7 | – | 387
343.15 K, x1 = 0.9 | – | 610
353.15 K, x1 = 0.3 | – | 7.11
353.15 K, x1 = 0.7 | – | 385
353.15 K, x1 = 0.9 | – | 540

C=Cn1cc[n+](CCCC)c1.NCC(=O)[O-] + O
Conditions | electrical conductivity [S/m] | viscosity [mPa·s]
293.15 K, x1 = 0.1 | – | 7.17
293.15 K, x1 = 0.3 | – | 23.93
293.15 K, x1 = 0.7 | – | 403
293.15 K, x1 = 1 | – | 11700
303.15 K, x1 = 0.1 | 1.04 | 7.07
303.15 K, x1 = 0.3 | 1.75 | 19.67
303.15 K, x1 = 0.7 | 1.58 | 282
303.15 K, x1 = 0.9 | 0.412 | 1068
308.15 K, x1 = 0.3 | 1.94 | –
308.15 K, x1 = 0.5 | 2.95 | –
313.15 K, x1 = 0.1 | 1.19 | 6.73
313.15 K, x1 = 0.3 | 2.16 | 14.44
313.15 K, x1 = 0.5 | 3.34 | 33.65
313.15 K, x1 = 0.7 | 2.31 | 199
313.15 K, x1 = 0.9 | 0.653 | 730
313.15 K, x1 = 1 | 0.013 | 5900
318.15 K, x1 = 0.1 | 1.29 | –
318.15 K, x1 = 0.3 | 2.44 | –
318.15 K, x1 = 0.7 | 2.87 | –
318.15 K, x1 = 0.9 | 0.89 | –
318.15 K, x1 = 1 | 0.018 | –
323.15 K, x1 = 0.1 | 1.35 | 6.71
323.15 K, x1 = 0.3 | 2.63 | 11.28
323.15 K, x1 = 0.5 | 4.09 | 28.63
323.15 K, x1 = 0.7 | 3.25 | 168
323.15 K, x1 = 0.9 | 1.2 | 570
323.15 K, x1 = 1 | 0.021 | 3100
333.15 K, x1 = 0.1 | – | 5.87
333.15 K, x1 = 0.5 | – | 28.1
333.15 K, x1 = 0.7 | – | 156
333.15 K, x1 = 0.9 | – | 540
343.15 K, x1 = 0.1 | – | 5.29
343.15 K, x1 = 0.5 | – | 22.04
343.15 K, x1 = 0.7 | – | 132
343.15 K, x1 = 0.9 | – | 540
353.15 K, x1 = 0.1 | – | 5.08
353.15 K, x1 = 0.3 | – | 9.83
353.15 K, x1 = 0.7 | – | 104.8

C=C[n+]1ccn(CCCC)c1.N[C@@H](Cc1c[nH]cn1)C(=O)[O-] + O
Conditions | electrical conductivity [S/m] | viscosity [mPa·s]
293.15 K, x1 = 0.1 | – | 2.55
293.15 K, x1 = 0.3 | – | 10.63
293.15 K, x1 = 0.5 | – | 26.91
293.15 K, x1 = 0.7 | – | 92.2
293.15 K, x1 = 0.9 | – | 1475
293.15 K, x1 = 1 | – | 8300
303.15 K, x1 = 0.1 | 2.65 | 2.35
303.15 K, x1 = 0.5 | 3.61 | 21.73
303.15 K, x1 = 0.7 | 2.67 | 59.5
303.15 K, x1 = 1 | 0.07 | 5300
308.15 K, x1 = 0.1 | 2.94 | –
308.15 K, x1 = 0.3 | 3.79 | –
308.15 K, x1 = 0.5 | 3.85 | –
308.15 K, x1 = 0.7 | 2.95 | –
308.15 K, x1 = 0.9 | 0.75 | –
308.15 K, x1 = 1 | 0.089 | –
313.15 K, x1 = 0.1 | 3.12 | 2.08
313.15 K, x1 = 0.3 | 4.12 | 5.88
313.15 K, x1 = 0.5 | 4.08 | 17.2
313.15 K, x1 = 0.7 | 3.27 | 43.6
313.15 K, x1 = 0.9 | 0.99 | 1026
313.15 K, x1 = 1 | 0.123 | 2700
318.15 K, x1 = 0.1 | 3.32 | –
318.15 K, x1 = 0.3 | 4.38 | –
318.15 K, x1 = 0.5 | 4.37 | –
318.15 K, x1 = 0.7 | 3.6 | –
318.15 K, x1 = 0.9 | 1.27 | –
318.15 K, x1 = 1 | 0.162 | –
323.15 K, x1 = 0.1 | 3.58 | 1.7
323.15 K, x1 = 0.3 | 4.7 | 4.81
323.15 K, x1 = 0.5 | 4.58 | 14.68
323.15 K, x1 = 0.7 | 3.83 | 33.63
323.15 K, x1 = 0.9 | 1.64 | 930
333.15 K, x1 = 0.1 | – | 1.46
333.15 K, x1 = 0.5 | – | 14.17
333.15 K, x1 = 0.7 | – | 29.24
333.15 K, x1 = 0.9 | – | 550
333.15 K, x1 = 1 | – | 810
343.15 K, x1 = 0.1 | – | 1.04
343.15 K, x1 = 0.3 | – | 4
343.15 K, x1 = 0.5 | – | 13.4
343.15 K, x1 = 0.9 | – | 327
343.15 K, x1 = 1 | – | 500
353.15 K, x1 = 0.1 | – | 0.95
353.15 K, x1 = 0.3 | – | 3.68
353.15 K, x1 = 0.7 | – | 29
353.15 K, x1 = 0.9 | – | 116
353.15 K, x1 = 1 | – | 331

C=C[n+]1ccn(CCCC)c1.NCCCC[C@H](N)C(=O)[O-] + O
Conditions | electrical conductivity [S/m] | viscosity [mPa·s]
293.15 K, x1 = 0.1 | – | 3.29
293.15 K, x1 = 0.7 | – | 95.3
303.15 K, x1 = 0.1 | 1.99 | 2.85
303.15 K, x1 = 0.3 | 2.61 | 5.21
303.15 K, x1 = 0.7 | 1.91 | 74.7
308.15 K, x1 = 0.3 | 2.78 | –
308.15 K, x1 = 0.5 | 3.12 | –
308.15 K, x1 = 0.7 | 2.3 | –
308.15 K, x1 = 0.9 | 1.23 | –
308.15 K, x1 = 1 | 0.154 | –
313.15 K, x1 = 0.1 | 2.36 | 2.38
313.15 K, x1 = 0.7 | 2.54 | 55.38
313.15 K, x1 = 0.9 | 1.34 | 1167
313.15 K, x1 = 1 | 0.176 | 3700
318.15 K, x1 = 0.1 | 2.51 | –
318.15 K, x1 = 0.3 | 3.29 | –
318.15 K, x1 = 0.5 | 3.6 | –
318.15 K, x1 = 0.7 | 2.95 | –
318.15 K, x1 = 0.9 | 1.45 | –
318.15 K, x1 = 1 | 0.195 | –
323.15 K, x1 = 0.1 | 2.78 | 1.97
323.15 K, x1 = 0.3 | 3.56 | 3.57
323.15 K, x1 = 0.7 | 3.28 | 42.7
323.15 K, x1 = 0.9 | 1.62 | 950
323.15 K, x1 = 1 | 0.214 | 1961
333.15 K, x1 = 0.1 | – | 1.58
333.15 K, x1 = 0.3 | – | 2.36
333.15 K, x1 = 0.5 | – | 36.92
333.15 K, x1 = 0.7 | – | 36.62
333.15 K, x1 = 1 | – | 1174
343.15 K, x1 = 0.3 | – | 2.2
343.15 K, x1 = 0.7 | – | 33.98
343.15 K, x1 = 1 | – | 780
353.15 K, x1 = 0.5 | – | 36.44
353.15 K, x1 = 0.7 | – | 33.87
353.15 K, x1 = 0.9 | – | 185
353.15 K, x1 = 1 | – | 560
